Test results: patent US5856347A, “Antibacterial preparation or bactericide comprising 2-aminothiazole derivative and/or salt thereof” (Hisamitsu Pharmaceutical Co., Inc., priority 1994, dated 1999)

Legend:
Type in all cases: cell-based
[1] = test system: Staphylococcus epidermidis; assay: Acquisition of tolerance in Staphylococcus epidermidis (serial passages)
Method: (§1) Acquisition of Tolerance in Staphylococcus aureus and Staphylococcus epidermidis
(§2) One platinum loop of each test strain on a slant culture medium was inoculated into 10 ml of a growing medium (Trypto-Soya Broth manufactured by Nussui Pharmaceutical Co., Ltd.) and cultured at 37° C. for 18 to 20 hr. The thus obtained cultures were each diluted to obtain suspensions of about 10^8 cells/ml which were later used as a bacteria suspension for inoculation.
(§3) About 10 mg of compound No. 9 were weighed out and dissolved in such an amount of DMSO as to obtain a solution having a concentration of 12.8 mg/ml, after which the solution so obtained was subjected to stepwise two-fold dilutions with DMSO (12.8 to 0.1 mg/ml).
(§4) Separately, about 400 mg of Gentamicin sulfate (GM) were weighed and dissolved in distilled water to obtain a solution having a concentration of 409.6 mg/ml, after which the solution so obtained was subjected to stepwise two-fold dilutions with distilled water to prepare control medicinal solutions for comparison (409.6 to 0.1 mg/ml).
(§5) Each of the sample solutions thus obtained by the stepwise dilutions was added to a liquid medium (Trypto-Soya Broth manufactured by Nussui Pharmaceutical Co., Ltd.) in an amount of 0.01 volume thereof.
(§6) Each of the bacteria suspensions for inoculation was added to each of the sample-containing liquid media so prepared in an amount of 0.01. volume (about 10^6 cells/ml) of the liquid medium, and the bacteria were cultured at 37° C. for 2 to 4 days. Thereafter, the growth of bacteria was observed.

Staphylococcus aureus = assay: Acquisition of tolerance in Staphylococcus aureus (serial passages)
Method: as §1, §2, §3, §4, §5, §6

[2] = test system: Staphylococcus epidermidis tolerant to GM; assay: Antibacterial activity against GM-tolerant Staphylococcus epidermidis; conditions: S. epidermidis tolerant to GM
Method: (§7) Antibacterial Activity Against GM-Sensitive and Tolerant Strains of Staphylococcus aureus and Staphylococcus epidermidis
as §2, with “10^7” for “10^8”
(§8) About 10 mg of compound No. 9 were weighed out and dissolved in such an amount of DMSO as to obtain a solution having a concentration of 10 mg/ml. Separately, about 400 mg of Gentamicin sulfate (GM) were weighed out and dissolved in distilled water to obtain a solution having a concentration of 409.6 mg/ml.
(§9) Each of the sample solutions thus prepared was added to a liquid medium (broth for determination of sensitivity, manufactured by Nussui Pharmaceutical Co., Ltd.) to obtain a liquid medium containing compound No. 9 in a concentration of 128 μg/ml or GM in a concentration of 4096 μg/ml. Further, each sample-containing medium so obtained was subjected to stepwise two-fold dilutions on a microplate with wells each containing […] of the above medium (compound No. 9: 128 to 1 μg/ml, GM: 4096 to 1 μg/ml). […]

[3] = test system: Staphylococcus aureus tolerant to GM; assay: Antibacterial activity against GM-tolerant Staphylococcus aureus; conditions: S. aureus tolerant to GM
Method: as §7
as §2, with “10^7” for “10^8”
as §8, §9

[4] = test system: Escherichia coli: IFO 3972; assay: Antibacterial activity against Gram-negative bacteria, Escherichia coli: IFO 3972 (MIC)
Method: Antibacterial Activity Against Gram-Negative Bacteria The procedure was performed in the same manner as Experiment Example 1.

[5] = test system: Staphylococcus epidermidis: IFO 12993; assay: Bactericidal activity against Staphylococcus epidermidis: IFO 12993 (MCC); conditions: S. epidermidis IFO 12993, 37° C., 18 to 20 hr, bactericidal (Table 9)
Method: (§10) Bactericidal Activity Against Gram-Positive Bacteria
(§11) One platinum loop of each test strain on a slant culture medium was inoculated into 10 ml of each growing medium (for aerobic bacteria: Trypto-Soya Broth manufactured by Nussui Pharmaceutical Co., Ltd., for anaerobic bacteria: GAM Broth manufactured by Nussui Pharmaceutical Co., Ltd.) and cultured at 37° C. for 18 to 20 hr. The thus obtained cultures were each diluted to obtain suspensions of about 10^7 cells/ml which were later used as a bacteria suspension for inoculation.
(§12) About 10 mg of each sample were weighed out and dissolved in such an amount of DMSO (dimethylsulfoxide) as to obtain solutions having a concentration of 10 mg/ml.
(§13) The sample solutions thus prepared were each added to each liquid medium (for aerobic bacteria: broth for determination of sensitivity, manufactured by Nussui Pharmaceutical Co., Ltd., for anaerobic bacteria: GAM Broth manufactured by Nussui Pharmaceutical Co., Ltd.) to obtain sample-containing medium solutions having a concentration of 128 μg/ml. […]
(§14) 5 μl of each bacteria suspension for inoculation were placed in each of the sample-containing liquid media so prepared, and the bacteria were cultured at 37° C. for 18 to 20 hr. […] The minimum concentrations of the samples, which have been judged to kill bacteria, are expressed as MCC (Minimum Cidal Concentration) in μg/ml. […]

[6] = test system: Staphylococcus epidermidis sensitive to GM; assay: Antibacterial activity against GM-sensitive Staphylococcus epidermidis; conditions: S. epidermidis sensitive to GM, 37° C., 4 days
Method: as §7
as §2, with “10^7” for “10^8”
as §8, §9

[7] = test system: Staphylococcus aureus: IFO 13276; assay: Antibacterial activity against Staphylococcus aureus: IFO 13276 (MIC, liquid dilution); conditions: S. aureus IFO 13276, 37° C., 18 to 20 hr (Table 2)
Method: (§15) Antibacterial Activity Against Gram-positive Bacteria
(§16) One platinum loop (oese) of a test strain on a slant culture medium was inoculated into 10 ml of each growing medium (for aerobic bacteria: Trypto-Soya Broth manufactured by Nussui Pharmaceutical Co., Ltd., for anaerobic bacteria: GAM Broth manufactured by Nussui Pharmaceutical Co., Ltd.) and cultured at. 37° C. for 18 to 20 hr. The cultures thus obtained were each diluted to obtain suspensions of about 10^7 cells/ml which were later used as a bacteria suspension for inoculation.
(§17) About 10 mg of each sample were weighed out and dissolved in such an amount of DMSO (dimethylsulfoxide) as to obtain sample solutions having a concentration of 10 mg/ml.
(§18) The sample solutions thus prepared were each added to each liquid medium (for aerobic bacteria: broth for determination of sensitivity, manufactured by Nussui Pharmaceutical Co., Ltd., for anaerobic bacteria: GAM Broth manufactured by Nussui Pharmaceutical Co., Ltd.) to obtain sample-containing medium solutions having a concentration of 128 μg/ml. Further, the thus obtained solutions were each subjected to progressive or stepwise two-fold dilutions on a microplate with wells each containing […] of the above medium (until various concentrations in a range from 128 down to 0.063 μg/ml were obtained). […]

[8] = test system: Staphylococcus epidermidis: IFO 12993; assay: Antibacterial activity against Staphylococcus epidermidis: IFO 12993 (MIC); conditions: Staphylococcus epidermidis IFO 12993, 37° C., 18 to 20 hr
Method: as §15, §16, §17, §18

[9] = test system: Propionibacterium acnes: Clinical isolated No. 3; assay: Bactericidal activity against Propionibacterium acnes: Clinical isolated No. 3 (MCC); conditions: P. acnes clinical isolated No. 3, 37° C., 18 to 20 hr, bactericidal (Table 9)
Method: as §10, §11, §12, §13, §14

[10] = test system: Streptococcus pyogenes: IID 698; assay: Antibacterial activity against Streptococcus pyogenes: IID 698 (MIC); conditions: Streptococcus pyogenes IID 698, 37° C., 18 to 20 hr
Method: as §15, §16, §17, §18

[11] = test system: Streptococcus agalactiae: IID 1624; assay: Antibacterial activity against Streptococcus agalactiae: IID 1624 (MIC); conditions: Streptococcus agalactiae IID 1624, 37° C., 18 to 20 hr
Method: as §15, §16, §17, §18

[12] = test system: Propionibacterium acnes: Clinical isolated No. 3; assay: Antibacterial activity against Propionibacterium acnes: Clinical isolated No. 3 (MIC); conditions: Propionibacterium acnes clinical isolated No. 3, GAM Broth, 37° C., 18 to 20 hr
Method: as §15, §16, §17, §18

[13] = test system: Staphylococcus aureus sensitive to GM; assay: Antibacterial activity against GM-sensitive Staphylococcus aureus; conditions: S. aureus sensitive to GM, 37° C., 4 days
Method: as §7
as §2, with “10^7” for “10^8”
as §8, §9

[14] = test system: Bacillus subtilis: IFO 3134; assay: Antibacterial activity against Bacillus subtilis: IFO 3134 (MIC); conditions: Bacillus subtilis IFO 3134, 37° C., 18 to 20 hr
Method: as §15, §16, §17, §18

[15] = test system: Staphylococcus aureus: IFO 13276; assay: Bactericidal activity against Staphylococcus aureus: IFO 13276 (MCC); conditions: S. aureus IFO 13276, 37° C., 18 to 20 hr, bactericidal (Table 8)
Method: as §10, §11, §12, §13, §14

## COc1ccc(-c2nc(NS(=O)(=O)C(F)(F)F)sc2-c2ccccc2)cc1 [compound 9]
[1]; 18 passages
  acquisition of tolerance: did not induce the tolerance until 18 passages
  increase in MIC due to passages: neither of the strains caused a significant increase in MIC
Staphylococcus aureus; 10 passages
  acquisition of tolerance: did not induce bacterial tolerance until 10 passages
  increase in MIC due to passages: neither of the strains caused a significant increase in MIC
[2]
  antibacterial activity and bactericidal activity compared with GM-sensitive strains: equally powerful to those against the strains sensitive to Gentamicin sulfate (GM)
[3]
  antibacterial activity and bactericidal activity compared with GM-sensitive strains: equally powerful to those against the strains sensitive to Gentamicin sulfate (GM)

## Gentamicin sulfate [GM]
[4]
  MIC (Minimum Inhibitory Concentration): 2 µg/mL
[1]; 18 passages
  acquisition of tolerance: highly induced the tolerance
[1]; 18 passages in medium containing GM
  MIC after passages: about 1000 μg/ml
[5]
  MCC (Minimum Cidal Concentration), column head prints MIC: 64 µg/mL
Staphylococcus aureus; 10 passages
  acquisition of tolerance: highly induced the tolerance
Staphylococcus aureus; 10 passages in medium containing GM
  MIC after passages: about 1000 μg/ml
[6]
  MIC (Minimum Inhibitory Concentration): 0.5 µg/mL
[2]; 37° C., 4 days
  MIC (Minimum Inhibitory Concentration): 1024 µg/mL
[7]
  MIC (Minimum Inhibitory Concentration): 2 µg/mL
[8]
  MIC (Minimum Inhibitory Concentration): 0.5 µg/mL
[3]; 37° C., 4 days
  MIC (Minimum Inhibitory Concentration): 2048 µg/mL
[9]
  MCC (Minimum Cidal Concentration), column head prints MIC: 64 µg/mL
[10]
  MIC (Minimum Inhibitory Concentration): 2 µg/mL
[11]
  MIC (Minimum Inhibitory Concentration): 16 µg/mL
[12]
  MIC (Minimum Inhibitory Concentration): 32 µg/mL
[13]
  MIC (Minimum Inhibitory Concentration): 2 µg/mL
[14]
  MIC (Minimum Inhibitory Concentration): 0.25 µg/mL
[15]
  MCC (Minimum Cidal Concentration), column head prints MIC: 128 µg/mL
